Test results reported in the supplement of paper PMC10307832.

Legend:
Assay in all cases: relative viability (nuclei count vs DMSO), 5 days (fraction); higher = more cells survive
NCI-H661 = tested on: NCI-H661
How it was run: (§1)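 After 5 days of treatment, lung cancer cells in 1536-well plates were fixed and stained in a single step (final 0.05% Triton X-100, 1% formaldehyde, 1 ug/ml Hoechst) and their nuclei counted on 4× images. Treatment had been applied by pin tool the day after seeding as one drug alone or as a fixed anchor-drug dose with five library-drug doses (not always all listed) in √10 steps. Relative viability is the nuclei count of treated wells divided by that of vehicle wells, and values are medians of duplicate plates.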

HARA = tested on: HARA
How it was run: as §1

NCI-H596 = tested on: NCI-H596
How it was run: as §1

NCI-H1792 = tested on: NCI-H1792
How it was run: as §1

NCI-H1395 = tested on: NCI-H1395
How it was run: as §1

NCI-H1734 = tested on: NCI-H1734
How it was run: as §1

NCI-H2405 = tested on: NCI-H2405
How it was run: as §1

NCI-H2170 = tested on: NCI-H2170
How it was run: as §1

LOU-NH91 = tested on: LOU-NH91
How it was run: as §1

NCI-H2228 = tested on: NCI-H2228
How it was run: as §1

NCI-H647 = tested on: NCI-H647
How it was run: as §1

NCI-H2342 = tested on: NCI-H2342
How it was run: as §1

NCI-H2087 = tested on: NCI-H2087
How it was run: as §1

LC-2-ad = tested on: LC-2-ad
How it was run: as §1

SK-LU-1 = tested on: SK-LU-1
How it was run: as §1

HCC-827 = tested on: HCC-827
How it was run: as §1

BEN = tested on: BEN
How it was run: as §1

EKVX = tested on: EKVX
How it was run: as §1

NCI-H1437 = tested on: NCI-H1437
How it was run: as §1

SK-MES-1 = tested on: SK-MES-1
How it was run: as §1

NCI-H1355 = tested on: NCI-H1355
How it was run: as §1

NCI-H2009 = tested on: NCI-H2009
How it was run: as §1

## O=C(O)c1ccc(-c2c[nH]c3ncc(-c4ccccc4)cc23)cc1C1CCCC1 + CCNC(=O)c1noc(-c2cc(C(C)C)c(O)cc2O)c1-c1ccc(CN2CCOCC2)cc1 [Luminespib] (partner 0.01 µM)
NCI-H661; first compound 0.04 µM
  relative viability: 0.915
NCI-H661; first compound 0.4 µM
  relative viability: 0.905
NCI-H661; first compound 1.265 µM
  relative viability: 0.897
HARA; first compound 0.04 µM
  relative viability: 0.767
HARA; first compound 0.1265 µM
  relative viability: 0.748
HARA; first compound 0.4 µM
  relative viability: 0.141
HARA; first compound 1.265 µM
  relative viability: 0.418
NCI-H596; first compound 0.04 µM
  relative viability: 1
NCI-H596; first compound 0.1265 µM
  relative viability: 1.03
NCI-H596; first compound 0.4 µM
  relative viability: 0.909
NCI-H596; first compound 1.265 µM
  relative viability: 0.973
NCI-H1792; first compound 0.1265 µM
  relative viability: 0.477
NCI-H1792; first compound 0.4 µM
  relative viability: 0.351
NCI-H1792; first compound 1.265 µM
  relative viability: 0.519
NCI-H1395; first compound 0.04 µM
  relative viability: 0.726
NCI-H1395; first compound 0.1265 µM
  relative viability: 0.636
NCI-H1395; first compound 0.4 µM
  relative viability: 0.534
NCI-H1395; first compound 1.265 µM
  relative viability: 0.606
NCI-H1734; first compound 0.04 µM
  relative viability: 0.186
NCI-H1734; first compound 0.1265 µM
  relative viability: 0.194
NCI-H1734; first compound 0.4 µM
  relative viability: 0.224
NCI-H1734; first compound 1.265 µM
  relative viability: 0.202
NCI-H2405; first compound 0.04 µM
  relative viability: 0.778
NCI-H2405; first compound 0.1265 µM
  relative viability: 0.831
NCI-H2405; first compound 0.4 µM
  relative viability: 0.579
NCI-H2405; first compound 1.265 µM
  relative viability: 0.535
NCI-H2170; first compound 0.04 µM
  relative viability: 0.745
NCI-H2170; first compound 0.1265 µM
  relative viability: 0.804
NCI-H2170; first compound 0.4 µM
  relative viability: 0.794
NCI-H2170; first compound 1.265 µM
  relative viability: 0.491
LOU-NH91; first compound 0.04 µM
  relative viability: 0.323
LOU-NH91; first compound 0.1265 µM
  relative viability: 0.33
LOU-NH91; first compound 0.4 µM
  relative viability: 0.278
LOU-NH91; first compound 1.265 µM
  relative viability: 0.472
NCI-H2228; first compound 0.04 µM
  relative viability: 0.144
NCI-H2228; first compound 0.1265 µM
  relative viability: 0.188
NCI-H2228; first compound 0.4 µM
  relative viability: 0.0961
NCI-H2228; first compound 1.265 µM
  relative viability: 0.0961
NCI-H647; first compound 0.04 µM
  relative viability: 0.148
NCI-H647; first compound 0.1265 µM
  relative viability: 0.152
NCI-H647; first compound 0.4 µM
  relative viability: 0.18
NCI-H647; first compound 1.265 µM
  relative viability: 0.16
NCI-H2342; first compound 0.04 µM
  relative viability: 0.773
NCI-H2342; first compound 0.1265 µM
  relative viability: 0.715
NCI-H2342; first compound 0.4 µM
  relative viability: 0.758
NCI-H2342; first compound 1.265 µM
  relative viability: 0.678
NCI-H2087; first compound 0.04 µM
  relative viability: 0.182
NCI-H2087; first compound 0.1265 µM
  relative viability: 0.192
NCI-H2087; first compound 0.4 µM
  relative viability: 0.221
NCI-H2087; first compound 1.265 µM
  relative viability: 0.164
LC-2-ad; first compound 0.04 µM
  relative viability: 0.874
LC-2-ad; first compound 0.1265 µM
  relative viability: 1.08
LC-2-ad; first compound 0.4 µM
  relative viability: 0.822
LC-2-ad; first compound 1.265 µM
  relative viability: 0.566
SK-LU-1; first compound 0.04 µM
  relative viability: 0.204
SK-LU-1; first compound 0.1265 µM
  relative viability: 0.196
SK-LU-1; first compound 0.4 µM
  relative viability: 0.231
SK-LU-1; first compound 1.265 µM
  relative viability: 0.179
HCC-827; first compound 0.04 µM
  relative viability: 0.602
HCC-827; first compound 0.1265 µM
  relative viability: 0.793
HCC-827; first compound 0.4 µM
  relative viability: 0.413
HCC-827; first compound 1.265 µM
  relative viability: 0.485
BEN; first compound 0.04 µM
  relative viability: 0.569
BEN; first compound 0.1265 µM
  relative viability: 0.32
BEN; first compound 0.4 µM
  relative viability: 0.284
BEN; first compound 1.265 µM
  relative viability: 0.306
EKVX; first compound 0.04 µM
  relative viability: 0.885
EKVX; first compound 0.1265 µM
  relative viability: 0.92
EKVX; first compound 0.4 µM
  relative viability: 0.931
EKVX; first compound 1.265 µM
  relative viability: 0.615
NCI-H1437; first compound 0.04 µM
  relative viability: 1.09
NCI-H1437; first compound 0.1265 µM
  relative viability: 1.07
NCI-H1437; first compound 0.4 µM
  relative viability: 0.925
NCI-H1437; first compound 1.265 µM
  relative viability: 0.603
SK-MES-1; first compound 0.04 µM
  relative viability: 0.81
SK-MES-1; first compound 0.1265 µM
  relative viability: 0.973
SK-MES-1; first compound 0.4 µM
  relative viability: 0.596
SK-MES-1; first compound 1.265 µM
  relative viability: 0.35
NCI-H1355; first compound 0.04 µM
  relative viability: 0.692
NCI-H1355; first compound 0.1265 µM
  relative viability: 0.622
NCI-H1355; first compound 0.4 µM
  relative viability: 0.464
NCI-H1355; first compound 1.265 µM
  relative viability: 0.384
NCI-H2009; first compound 0.04 µM
  relative viability: 1.05
NCI-H2009; first compound 0.1265 µM
  relative viability: 1.03
NCI-H2009; first compound 0.4 µM
  relative viability: 0.963
NCI-H2009; first compound 1.265 µM
  relative viability: 0.75
